Reference: patent US20260022142A1, “MACROCYCLIC IMMUNOMODULATORS” (Bristol-Myers Squibb Company, priority 2022, published 2026)
pIC50: −log10 of the molar value. Bridge positions count the residues as written; N and C are the ends. Square brackets hold non-standard residues; d marks the D form. Peptide text beside a SMILES is read from it. * marks the point of attachment. Phe(3,4,5-F3) = N[C@@H](Cc1cc(F)c(F)c(F)c1)C(=O)O; Phe(4-COOH) = N[C@@H](Cc1ccc(C(=O)O)cc1)C(=O)O; Bip = N[C@@H](Cc1ccc(-c2ccccc2)cc1)C(=O)O; NH(CH2)14COOH = O=C(O)CCCCCCCCCCCCCCN*; Phe(3-Me) = Cc1cccc(C[C@H](N)C(=O)O)c1; NH(CH2)12COOH = O=C(O)CCCCCCCCCCCCN*; PEG6 = NCCOCCOCCOCCOCCOCCOCCC(=O)O; Val(3-OH) = CC(C)(O)[C@H](N)C(=O)O; 4Pal = N[C@@H](Cc1ccncc1)C(=O)O; Cha = N[C@@H](CC1CCCCC1)C(=O)O; aThr = C[C@H](O)[C@H](N)C(=O)O; Carboxymethyl = O=C(O)C*; Orn = NCCC[C@H](N)C(=O)O; Aun = NCCCCCCCCCCC(=O)O; Dab = NCC[C@H](N)C(=O)O; Dap = NC[C@H](N)C(=O)O; AEEA = NCCOCCOCC(=O)O

Target: T1, PD-1/PD-L1 interaction (PE-labeled human PD-L1-Ig binding to Jurkat cell line over-expressing human PD-1) (Homo sapiens, UniProt Q15116)
T1 construct: expressed in transfected cells; host or cells: Jurkat
T1 sequence (Q15116 25-288): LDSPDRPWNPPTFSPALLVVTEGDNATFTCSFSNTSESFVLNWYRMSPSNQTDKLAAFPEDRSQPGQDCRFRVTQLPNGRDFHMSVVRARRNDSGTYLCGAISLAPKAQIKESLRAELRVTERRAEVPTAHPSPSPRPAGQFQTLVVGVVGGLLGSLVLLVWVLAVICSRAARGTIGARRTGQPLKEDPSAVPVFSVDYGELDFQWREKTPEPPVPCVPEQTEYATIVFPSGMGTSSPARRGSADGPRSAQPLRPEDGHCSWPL
Assay: Jurkat-PD-1 Cell Binding High-Content Screening Assay (CBA)
Format: cell-based
Conditions: Jurkat cell line over-expressing human PD-1; PE-labeled PD-L1-Ig 20 nM final; read-out: Jurkat hPD1-PDL1 IC50
In short: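 First, compound is added to PD-1-expressing Jurkat cells in serum-containing DMEM and left 2 h at 37° C. Next, PE-conjugated PD-L1-Ig is introduced at 20 nM final concentration for 1 hour. Finally, cells are fixed in 4% paraformaldehyde with Hoechst 33342, washed and imaged.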

| pIC50 | SMILES |
| --- | --- |
| 8.00 | Cc1cccc(C[C@@H]2NC(=O)[C@H](CC(=O)O)NC(=O)[C@H](Cc3ccc(C(=O)O)cc3)NC(=O)[C@H](CCN)NC(=O)CSC[C@@H](C(=O)N[C@@H](CCN)C(=O)NCCOCCOCC(=O)NCCOCCOCC(=O)NCCCCCCCCCCCCC(=O)O)NC(=O)[C@H](Cc3c[nH]cn3)NC(=O)[C@H](C(C)(C)O)NC(=O)[C@H](CC3CCCCC3)NC(=O)[C@H](CCN)NC(=O)[C@@H](CC(C)C)NC(=O)[C@H](CCCN)NC(=O)[C@H](Cc3ccc(C(=O)O)cc3)NC(=O)[C@H](Cc3ccc(-c4ccccc4)cc3)NC(=O)[C@H](Cc3ccc(C(=O)O)cc3)NC2=O)c1 [Compound 2886] ({CH2CO}-[Dab][Phe(4-COOH)]D[Phe(3-Me)][Phe(4-COOH)][Bip][Phe(4-COOH)][Orn][dL][Dab][Cha][Val(3-OH)]HC[Dab][AEEA][AEEA]-{NH(CH2)12COOH}; thioether N-14) |
| 7.04 | Cc1cccc(C[C@@H]2NC(=O)[C@H](CC(=O)O)NC(=O)[C@H](Cc3ccc(OCC(=O)O)cc3)NC(=O)[C@H]([C@H](C)O)NC(=O)CSC[C@@H](C(=O)N[C@@H](CCN)C(=O)NCCOCCOCCOCCOCCOCCOCCC(=O)NCCCCCCCCCCCCCCC(=O)O)NC(=O)[C@H](CCC(=O)O)NC(=O)[C@H](C(C)C)NC(=O)[C@H](CC3CCCCC3)NC(=O)[C@H](CCN)NC(=O)[C@@H](CC(C)C)NC(=O)[C@H](CCCN)NC(=O)[C@H](Cc3ccc(OCC(=O)O)cc3)NC(=O)[C@H](Cc3ccc(-c4ccccc4)cc3)NC(=O)[C@H](Cc3ccc(C(=O)O)cc3)NC2=O)c1 [Compound 3911] ({CH2CO}-[aThr]Y(Carboxymethyl)D[Phe(3-Me)][Phe(4-COOH)][Bip]Y(Carboxymethyl)[Orn][dL][Dab][Cha]VEC[Dab][PEG6]-{NH(CH2)14COOH}; thioether N-14) |
| 7.62 | Cc1cccc(C[C@@H]2NC(=O)[C@H](CC(=O)O)NC(=O)[C@H](Cc3ccc(OCC(=O)O)cc3)NC(=O)[C@H](CN)NC(=O)CSC[C@@H](C(=O)N[C@@H](CCN)C(=O)NCCCCCCCCCCC(=O)O)NC(=O)[C@H](CO)NC(=O)[C@H](Cc3cnc[nH]3)NC(=O)[C@H](CC3CCCCC3)NC(=O)[C@H](CCN)NC(=O)[C@@H](CC(C)C)NC(=O)[C@H](CCCN)NC(=O)[C@H](Cc3ccc(OCC(=O)O)cc3)NC(=O)[C@H](Cc3ccc(-c4ccccc4)cc3)NC(=O)[C@H](Cc3ccc(C(=O)O)cc3)NC2=O)c1 [Compound 3705] ({CH2CO}-[Dap]Y(Carboxymethyl)D[Phe(3-Me)][Phe(4-COOH)][Bip]Y(Carboxymethyl)[Orn][dL][Dab][Cha]HSC[Dab][Aun]-OH; thioether N-14) |
| 7.59 | Cc1cccc(C[C@@H]2NC(=O)[C@H](CC(=O)O)NC(=O)[C@H](Cc3ccc(OCC(=O)O)cc3)NC(=O)[C@H](Cc3ccncc3)NC(=O)CSC[C@@H](C(=O)N[C@@H](CCN)C(=O)NCCCCCCCCCCC(=O)O)NC(=O)[C@H](CO)NC(=O)[C@H](C(C)(C)O)NC(=O)[C@H](CC3CCCCC3)NC(=O)[C@H](CCN)NC(=O)[C@@H](CC(C)C)NC(=O)[C@H](CCCN)NC(=O)[C@H](Cc3ccc(OCC(=O)O)cc3)NC(=O)[C@H](Cc3ccc(-c4ccccc4)cc3)NC(=O)[C@H](Cc3cc(F)c(F)c(F)c3)NC2=O)c1 [Compound 2202] ({CH2CO}-[4Pal]Y(Carboxymethyl)D[Phe(3-Me)][Phe(3,4,5-F3)][Bip]Y(Carboxymethyl)[Orn][dL][Dab][Cha][Val(3-OH)]SC[Dab][Aun]-OH; thioether N-14) |
